The results in this text go back to patent publication US20040265323A1, “Compositions comprising pathogen elicited epithelial chemoattractant (eicosanoid hepoxilin A3), inhibitors thereof and methods of use thereof” (priority 2003, published 2004).

Format in all cases: cell-based, human
Assay [1] concerns PMN transmigration across T84 cell monolayers. The assay can be described thus: PMN transepithelial migration to imposed gradients of lipids across T84 monolayers. The note with it: imposed gradients across T84 cell monolayers, basolateral-to-apical. As for the experimental part:
Crude preparations of PEEC were collected from the apical surface of polarized T84 cell monolayers following infection with S. typhimurium SL1344 as previously described (McCormick et al., 1998). For these experiments, T84 intestinal epithelial cells (passages 45 to 65) were grown in a 1:1 mixture of Dulbecco-Vogt modified Eagles medium and Ham's F-12 medium supplemented with 15 mM Hepes buffer (pH 7.5), 14 mM NaHCO3, 40 mg/liter penicillin, 8 mg/liter ampicillin, 90 mg/liter streptomycin and 5% newborn calf serum. Polarized monolayers of T84 cells were formed and maintained on 0.33 cm^2 ring-supported collagen-coated polycarbonate filters (Costar Corp., Cambridge, Mass.) as previously described (Madara et al., 1992) with recently detailed modifications (Dharmsathaphorn and Madara, 1990). T84 cell monolayers reached a steady-state resistance 4 to 6 days after plating with some variability largely related to cell passage number. Cell culture inserts of inverted monolayers, used to study transmigration of PMN in the physiological basolateral-to-apical direction, were constructed as previously described (Madara et al., 1992; Dharmsathaphorn and Madara, 1990; Nash et al., 1991).
(§1) It was further examined if hepoxilin A3 acts in a gradient fashion to drive PMN migration from the basolateral to the apical epithelial surface. For these experiments, the physiologically directed (basolateral-to-apical) PMN transepithelial migration assay using cell culture inserts of inverted T84 monolayers has been used (McCormick et al., 1993; Parkos et al., 1992). Human PMN were isolated from normal volunteers, as described elsewhere (Parkos et al., 1992; Henson and Oades, 1975). PMN transmigration results were represented as PMN cell equivalents (CE) derived from a daily standard PMN dilution curve. PMN which completely traversed the monolayer were represented as the number of PMN (CE/ml in a total volume of 1 ml). Values were expressed as the mean and SD of an individual experiment done in triplicate repeated at least 3 times.
Arachidonic acid is the initial substrate used by a variety of metabolic pathways involving lipoxygenase (LO) activities—enzymes that add hydroxyl groups at specific carbon atoms of this 20-carbon fatty acid. […] Therefore, in addition to hepoxilin A3, a wide range of arachidonic acid metabolites for their ability to incite the transmigration of PMNs across T84 monolayers in vitro was examined (Table 1). […] This is consistent with previous reports that LTB4 is capable of inducing PMN transmigration.

Assay [2] concerns PMN. Description: PMN intracellular Ca2+ mobilization. The following applies: 5 μg/ml, FIG. 4B. From the text: Further, crude PEEC preparations were collected from postinfected T84 cells monolayers. Samples were first passed through an Amicon ultra-filtration apparatus (Millipore Corp.; Bedford, Mass.) fitted with a 2,000 Da cut-off membrane. Filtrate components were bound to a Backerbond spe™ octadecyl extraction column (J. T. Baker; Philipsburg, N.J.) that was subsequently eluted with water, hexane, and finally methanol. The methanol fraction was dried under vacuum and resuspended in 50:50 (vol:vol) methanol:2 mM Tris HCl (pH 7.5) and injected onto a Vydac C18 (10 μm; 300 Å) semi-preparative column ([…]) equilibrated with 2 mM Tris-HCl (pH 7.5). A methanol gradient of 1-10% over 10 minutes, then 10-60% over 25 minutes, followed by 60-100% over 45 minutes (all at room temperature) was used to isolate active PEEC fractions. Active fractions, having no detectable absorbance at 280 nm and weak absorbance at 214 nm, were analyzed using a Genesis C18 (4 μm, 120 Å) analytical HPLC column (4.6×150 mm) equilibrated with 5 mM triethylamine/acetic acid (pH 7.2). […] (FIG. 2A and B).
(§2) To substantiate the notion that hepoxilin A3 was in fact the molecule responsible for PEEC bioactivity, it was examined whether synthetic hepoxilin A3 (BIOMOL, Plymouth Meeting, Pa.) could recapitulate PEEC bioactivity. […] Thus, authentic hepoxilin A3 recapitulates all known aspects of PEEC bioactivity consistent with the notion that hepoxilin A3 is in fact PEEC's active component.

The subject of assay [3] is S. typhimurium-induced PMN transepithelial migration, T84 cells. The assay can be described thus: Inhibition of S. typhimurium-induced PMN transepithelial migration across T84 monolayers. The following applies: for inhibition of S. typhimurium-induced PMN transepithelial migration: T84 incubated 1 hour with inhibitor, FIG. 9.
Text: as §1, with “PMN transmigration results were represented as PMN cell equivalents (CE) derived from a daily standard PMN dilution curve.” left out
Hepoxilin A3 is formed via the 12-lipoxygenase (LO) metabolism pathway of arachidonic acid. Therefore, the involvement of the 12-LO pathway in the ability of the enteric pathogen, S. typhimurium, to induce PMN transepithelial migration and elicit PEEC secretion was tested. […] For 12-LO inhibition, HBSS(+)-washed T84 cell monolayers were incubated in the presence baicalein [stock concentration at 1 mM in DMSO] for 48 hours at 37° C. Subsequently, S. typhimurium SL1344 was added to the apical surface of the T84 monolayers and after an incubation of 1 hour at 37° C., the cells were washed free of non-adherent bacteria and then processed for the PMN transmigration assay. […] For 5-LO inhibition, the T84 cells were washed with HBSS(+) and then were incubated for 24 hours in the presence of caffeic acid (stock concentration at 22 mM in DMSO). Both inhibitors were purchased form Biomol, Plymouth Meeting, Pa.
In each instance, the T84 cell monolayers were incubated for […] in the presence of the inhibitor prior to the addition of S. typhimurium.

Assay [4] has as its system PEEC/hepoxilin A3 secretion. Description: Apical PEEC/hepoxilin A3 release from S. typhimurium infected T84 cell monolayers. From the text: T84 cell monolayers were infected with S. typhimurium in the absence or presence of the 12-LO enzyme inhibitor and apical supernatants were examined for PEEC bioactivity. […] Moreover, since it had been previously shown that S. typhimurium via its effector SipA initiates an ARF6-dependent lipid-signaling cascade that directs the activation of PKC and release of PEEC, it was further examined if blocking PKC activity (which would occur upstream of 12-LO) also corresponds with a reduction in hepoxilin A3 bioactivity and release, as one would predict.

Assay [5] deals with PMN. Description: PMN degranulation assessed by elastase release.
Text: as §2

In the next assay the test system is IL-8 secretion. The assay can be described thus: IL-8 secretion by S. typhimurium infected T84 cell monolayers. The following applies: S. typhimurium infected T84, caffeic acid 22 μM.

Each structure is given as a SMILES string. “Also recorded” adds a separate entry of the source.

`CCCCC/C=C\C[C@@H](O)/C=C/C=C\C/C=C\CCCC(=O)O` [12(R)-HETE]: the “PMN transepithelial migration (PEEC activity) induced by added lipid” value (“PMN transepithelial migration … by added lipid” below) in assay [1] is listed as “no PMN transmigration activity was observed”. In the assay with PMN [2], the “intracellular Ca2+ in PMN” value is reported as “failed to cause an increase in Ca^2+ mobilization”.
As for `CCCN(CCC)S(=O)(=O)c1ccc(C(=O)O)cc1` [probenecid], in assay [3], the “inhibition of S. typhimurium-induced PMN transepithelial migration” value is recorded as “significantly inhibited”.
Regarding `CC[C@]1(O)C[C@@H]2CN(CCc3c([nH]c4ccccc34)[C@@](C(=O)OC)(c3cc4c(cc3OC)N(C)[C@H]3[C@@](O)(C(=O)OC)[C@H](OC(C)=O)[C@]5(CC)C=CCN6CC[C@]43[C@@H]65)C2)C1` [vinblastine], in assay [4] (Homo sapiens, ~0.5 nM, pathogen-induced, T84, read-out: inhibition of hepoxilin A3 secreted), the inhibition at 0.0005 µM is around 60%.
On to `CCCCC/C=C\C[C@@H]1O[C@H]1C(O)/C=C\C/C=C\CCCC(=O)O` (stereo partly shown) [hepoxilin B3], for which, in assay [1], the “PMN transepithelial migration … by added lipid” value is “inactive; also recorded: failed to support events observed with hepoxilin A3”.
Same read-out and setting: the value for `CCCCC/C=C\C/C=C\C/C=C\C/C=C\CCCC(=O)O` [Arachidonic acid] was “could enhance the amount of PMN transmigration”.
As for `COc1ccc2c(c[n+](C)c3c4cc5c(cc4ccc23)OCO5)c1OC.[Cl-]` [chelerethyrine chloride], the “PEEC/hepoxilin A3 release” value in assay [4] (5 μM prior to infection with wild-type S. typhimurium) is below 1.0 pmol.
In the case of `CCCCC/C=C\C[C@@H](O)/C=C/C=C/C=C/[C@@H](O)CCCC(=O)O` (relative stereo) [trans LTB4], in assay [1], the “PMN transepithelial migration … by added lipid” value is on record as “failed to support events observed with hepoxilin A3”.
For `CCCCC[C@H](O)/C=C/C=C\C/C=C\C/C=C\CCCC(=O)O` [15(S)-HETE], in assay [1], the “PMN transepithelial migration … by added lipid” value is recorded as “only a low activity of PMN transmigration was observed”.
Turning to `CCCCC/C=C\C/C=C\CCCCCCCC(=O)O` [linoleic acid], the “PMN transepithelial migration … by added lipid” value in assay [1] is given as “failed to demonstrate any PEEC activity”.
Turning to `CCCCC/C=C\C[C@H](O)/C=C/C=C\C/C=C\CCCC(=O)O` [12(S)-HETE], in assay [1], the “PMN transepithelial migration … by added lipid” value is reported as “no PMN transmigration activity was observed”.
For `CCCCC/C=C\C/C=C\C/C=C\C=C\C(=O)CCCC(=O)O` [5-KETE], the “PMN transepithelial migration … by added lipid” value in assay [1] is listed as “failed to effect a transmigration of PMNs”.
As for `CCCCC/C=C\C[C@@H](O)/C=C/C=C/C=C\[C@@H](O)CCCC(=O)O` [LTB4], the PMN degranulation result in the assay with PMN [5] is “causes activation and degranulation”.
Turning to `O=C(O)/C=C/c1ccc(O)c(O)c1` [caffeic acid], in assay [3] (T84 pre-treated: baicalein 48 hours, caffeic acid 24 hours), the “S. typhimurium-induced PMN transepithelial migration with lipoxygenase inhibitor” value is “failed to prevent S. typhimurium-induced PMN transepithelial migration; also recorded: no inhibition”. The compound also had an IL-8 secretion in the assay with IL-8 secretion of 558 ± 26 pg/mL.
As to `C=C(CC)C(=O)c1ccc(OCC(=O)O)c(Cl)c1Cl` [ethacrynic acid], in assay [3], the “inhibition of S. typhimurium-induced PMN transepithelial migration” value is on record as “significantly inhibited”.
